Experiments:
[1] = biological target: T1, Endoplasmic reticulum aminopeptidase 2 (Homo sapiens, UniProt Q6P179); test: Activation of recombinant ERAP2 (unknown origin) expressed in baculovirus infected Hi-5 insect cells at 100 uM using R-AMC as substrate preincubated for 30 mins followed by substrate addition and measured every 3 mins for 1 hr by flourescence assay relative to control; settings: filed as activator, time 90.0 min
[2] = biological target: Endoplasmic reticulum aminopeptidase 1 (Homo sapiens) (UniProt Q9NZ08); test: Inhibition of recombinant C-terminal 10-His-tagged human ERAP1 at 100 uM using L-AMC as substrate preincubated for 30 mins followed by substrate addition measured every 3 mins for 1 hr by flourescence assay relative to control; settings: time 90.0 min
[3] = biological target: Leucyl-cystinyl aminopeptidase (IRAP), Homo sapiens (UniProt Q9UIQ6); test: Inhibition of recombinant human IRAP expressed in HEK293 cells at 100 uM using L-AMC as substrate preincubated for 30 mins followed by substrate addition measured every 3 mins for 1 hr by flourescence assay relative to control; settings: time 90.0 min
[4] = biological target: T1, Endoplasmic reticulum aminopeptidase 2; test: Inhibition of human ERAP2 assessed as hydrolysis of KSIINFEKL to SIINFEKL measured after 2 hrs by LC-MS analysis
[5] = biological target: T1, Endoplasmic reticulum aminopeptidase 2; test: Inhibition of human ERAP2
[6] = biological target: T1, Endoplasmic reticulum aminopeptidase 2; test: Inhibition of recombinant ERAP2 (unknown origin) expressed in baculovirus infected insect cells at 2 mM using R-AMC as substrate preincubated for 30 mins followed by substrate addition and measured every 3 mins for 1 hr by flourescence assay relative to control; settings: time 90.0 min
[7] = biological target: T1, Endoplasmic reticulum aminopeptidase 2; test: Inhibition of recombinant ERAP2 (unknown origin) expressed in baculovirus infected Hi-5 insect cells using R-AMC as substrate preincubated for 30 mins followed by substrate addition and measured every 3 mins for 1 hr by flourescence assay

T1 sequence (Q6P179 whole entry): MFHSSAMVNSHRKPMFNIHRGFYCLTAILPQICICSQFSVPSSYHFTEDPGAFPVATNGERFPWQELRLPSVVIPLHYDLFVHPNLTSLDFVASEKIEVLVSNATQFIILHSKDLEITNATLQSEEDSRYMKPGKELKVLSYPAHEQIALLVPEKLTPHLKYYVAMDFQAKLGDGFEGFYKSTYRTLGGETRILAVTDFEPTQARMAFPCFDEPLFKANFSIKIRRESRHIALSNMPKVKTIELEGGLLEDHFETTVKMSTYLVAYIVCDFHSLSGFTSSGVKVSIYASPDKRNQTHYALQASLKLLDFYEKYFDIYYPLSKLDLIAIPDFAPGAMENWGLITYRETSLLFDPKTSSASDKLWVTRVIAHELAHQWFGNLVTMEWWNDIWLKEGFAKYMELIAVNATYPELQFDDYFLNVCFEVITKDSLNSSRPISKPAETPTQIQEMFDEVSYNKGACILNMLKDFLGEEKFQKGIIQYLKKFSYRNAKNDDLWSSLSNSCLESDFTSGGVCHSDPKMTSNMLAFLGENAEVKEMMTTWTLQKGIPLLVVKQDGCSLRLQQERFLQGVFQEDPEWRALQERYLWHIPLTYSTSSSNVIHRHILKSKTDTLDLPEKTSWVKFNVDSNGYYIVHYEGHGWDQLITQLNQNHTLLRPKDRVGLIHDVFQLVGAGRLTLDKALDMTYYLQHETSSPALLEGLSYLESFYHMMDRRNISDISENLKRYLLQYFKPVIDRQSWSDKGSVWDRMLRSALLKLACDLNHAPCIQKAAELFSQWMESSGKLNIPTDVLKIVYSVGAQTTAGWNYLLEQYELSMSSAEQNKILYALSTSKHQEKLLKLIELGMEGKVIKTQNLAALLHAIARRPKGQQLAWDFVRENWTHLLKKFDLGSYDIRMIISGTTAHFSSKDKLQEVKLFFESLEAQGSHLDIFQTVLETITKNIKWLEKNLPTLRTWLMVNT
Leucyl-cystinyl aminopeptidase (IRAP), Homo sapiens, sequence (Q9UIQ6 whole entry, looked up): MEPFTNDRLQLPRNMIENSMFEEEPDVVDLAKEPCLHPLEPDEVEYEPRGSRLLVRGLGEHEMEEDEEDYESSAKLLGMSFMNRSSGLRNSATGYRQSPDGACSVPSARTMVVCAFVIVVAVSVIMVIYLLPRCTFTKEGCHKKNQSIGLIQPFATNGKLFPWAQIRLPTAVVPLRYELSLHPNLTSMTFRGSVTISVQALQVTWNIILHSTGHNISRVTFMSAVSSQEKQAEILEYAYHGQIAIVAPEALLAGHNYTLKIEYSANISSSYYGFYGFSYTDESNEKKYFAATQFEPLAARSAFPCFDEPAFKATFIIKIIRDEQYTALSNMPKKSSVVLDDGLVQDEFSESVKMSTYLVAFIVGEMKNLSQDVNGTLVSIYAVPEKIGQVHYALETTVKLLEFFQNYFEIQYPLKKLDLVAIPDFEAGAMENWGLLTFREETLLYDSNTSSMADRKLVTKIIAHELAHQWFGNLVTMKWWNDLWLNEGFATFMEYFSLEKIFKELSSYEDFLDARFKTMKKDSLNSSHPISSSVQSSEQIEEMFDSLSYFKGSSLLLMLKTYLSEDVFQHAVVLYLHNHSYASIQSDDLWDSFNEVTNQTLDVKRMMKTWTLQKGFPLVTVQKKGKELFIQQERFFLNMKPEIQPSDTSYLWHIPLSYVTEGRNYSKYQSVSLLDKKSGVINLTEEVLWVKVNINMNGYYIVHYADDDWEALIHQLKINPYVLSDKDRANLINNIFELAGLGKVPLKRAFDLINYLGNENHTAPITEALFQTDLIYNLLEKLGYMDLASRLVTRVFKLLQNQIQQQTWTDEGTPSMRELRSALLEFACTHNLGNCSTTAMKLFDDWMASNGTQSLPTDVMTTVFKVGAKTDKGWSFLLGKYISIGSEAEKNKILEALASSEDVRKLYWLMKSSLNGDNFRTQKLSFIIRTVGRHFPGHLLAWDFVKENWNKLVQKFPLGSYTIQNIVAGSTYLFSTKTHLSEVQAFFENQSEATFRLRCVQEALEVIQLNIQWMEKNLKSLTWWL
Endoplasmic reticulum aminopeptidase 1 (Homo sapiens), sequence (Q9NZ08 whole entry): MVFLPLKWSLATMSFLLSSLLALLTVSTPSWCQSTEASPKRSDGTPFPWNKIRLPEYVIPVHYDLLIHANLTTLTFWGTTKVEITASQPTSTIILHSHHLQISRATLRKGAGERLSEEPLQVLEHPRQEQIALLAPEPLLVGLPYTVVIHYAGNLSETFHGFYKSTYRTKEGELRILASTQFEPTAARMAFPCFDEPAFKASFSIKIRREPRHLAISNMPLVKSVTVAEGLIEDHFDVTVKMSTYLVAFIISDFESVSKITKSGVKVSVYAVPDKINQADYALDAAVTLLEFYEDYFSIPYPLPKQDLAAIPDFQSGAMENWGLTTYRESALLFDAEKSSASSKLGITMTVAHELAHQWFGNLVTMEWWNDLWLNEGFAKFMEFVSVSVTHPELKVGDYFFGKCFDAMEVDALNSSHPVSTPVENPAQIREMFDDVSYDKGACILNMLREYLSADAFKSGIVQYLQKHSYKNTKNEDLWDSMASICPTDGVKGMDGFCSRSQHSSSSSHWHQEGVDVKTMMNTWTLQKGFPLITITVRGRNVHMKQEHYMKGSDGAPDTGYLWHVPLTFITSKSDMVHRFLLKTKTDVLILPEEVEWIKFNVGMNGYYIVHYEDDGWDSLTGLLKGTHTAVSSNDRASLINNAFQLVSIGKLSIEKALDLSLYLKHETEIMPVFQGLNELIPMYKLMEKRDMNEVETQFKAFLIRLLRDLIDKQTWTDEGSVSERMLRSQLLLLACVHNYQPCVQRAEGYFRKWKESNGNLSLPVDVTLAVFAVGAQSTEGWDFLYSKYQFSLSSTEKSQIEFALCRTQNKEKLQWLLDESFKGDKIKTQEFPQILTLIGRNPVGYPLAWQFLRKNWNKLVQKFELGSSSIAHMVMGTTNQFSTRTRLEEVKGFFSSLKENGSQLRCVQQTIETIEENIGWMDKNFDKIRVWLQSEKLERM

SMILES | fold change (FC) [1] | inhibition [2] | inhibition [3] | other results
CC(C)C[C@@H](C(=O)O)N(C)C(=O)c1ccc(N(CCc2ccccc2)S(=O)(=O)c2ccc(F)cc2)cc1 | 1.46 |  |  | 
CN(C(=O)c1ccc(N(CCc2ccccc2)S(=O)(=O)c2ccccc2)cc1)[C@@H](Cc1ccccc1)C(=O)O | 1.76 | < 20% | 50% | IC50 [4]: 89 µM
C#CC[C@H](CP(=O)(O)[C@@H](N)CCc1ccccc1)C(=O)N[C@@H](Cc1ccccc1)C(N)=O |  |  |  | IC50 [5]: 33 µM
CC(C)C[C@H](NC(=O)[C@@H](O)[C@H](N)Cc1ccccc1)C(=O)O |  |  |  | inhibition [6]: 100%
CN(C(=O)c1ccc(N(CCc2ccccc2)S(=O)(=O)c2ccc(F)cc2)cc1)[C@@H](Cc1ccccc1)C(=O)O | 1.84 | < 20% | 50% | 
O=C(O)CN(CC(=O)N1CCN(Cc2ccccc2)C[C@@H]1Cc1c[nH]c2ccccc12)c1ccccc1 |  | < 10% |  | 
CC(C)C[C@@H](C(=O)O)N(C)C(=O)c1ccc(N(CCc2ccccc2)S(=O)(=O)c2ccccc2)cc1 | 1.43 |  |  | 
CN(C(=O)c1ccc(N(CCN2CCCC2)S(=O)(=O)c2ccc(F)cc2)cc1)[C@@H](Cc1ccccc1)C(=O)O |  | 10% | 49% | IC50 [7]: 9.7 µM; IC50 [4]: 98 µM
